Values quoted from earlier work, collected in patent US20130190499A1, “Azaisoquinolinone derivatives as NK3 antagonists” (H. Lundbeck A/S, priority 2010, published 2013).

Target: T1, NK3 (Homo sapiens, UniProt P29371)
T1 sequence (P29371 1-465): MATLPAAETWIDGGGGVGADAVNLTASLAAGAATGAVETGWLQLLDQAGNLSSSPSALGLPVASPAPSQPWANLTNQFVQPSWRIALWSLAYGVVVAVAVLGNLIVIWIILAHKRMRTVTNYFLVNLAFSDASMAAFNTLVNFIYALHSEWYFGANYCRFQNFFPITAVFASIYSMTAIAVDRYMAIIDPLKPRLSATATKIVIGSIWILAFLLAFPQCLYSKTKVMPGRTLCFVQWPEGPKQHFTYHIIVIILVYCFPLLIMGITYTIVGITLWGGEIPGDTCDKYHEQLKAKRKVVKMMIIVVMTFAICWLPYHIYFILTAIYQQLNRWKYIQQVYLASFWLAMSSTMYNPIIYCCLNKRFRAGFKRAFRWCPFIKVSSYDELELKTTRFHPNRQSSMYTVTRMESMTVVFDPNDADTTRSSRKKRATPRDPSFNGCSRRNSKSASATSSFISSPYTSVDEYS

Effect in clinical trials, in particular on positive symptoms of psychosis (versus placebo, delusions, hallucinations and paranoia)	Compound	Effect in clinical trials on cognitive behaviour of schizophrenics (schizophrenics)
superior to placebo	CC(=O)N(C)C1(c2ccccc2)CCN(CCC[C@]2(c3ccc(Cl)c(Cl)c3)CCCN(C(=O)c3ccccc3)C2)CC1 [Osanetant]	–
–	CC[C@H](NC(=O)c1c(O)c(-c2ccccc2)nc2ccccc12)c1ccccc1 [talnetant]	ameliorate the cognitive behaviour of schizophrenics
